Source: patent US6235284A, “Synthetic polypeptides belonging to the hepatitis C virus (HCV) and which can be used especially for detecting the latter” (Bio Merieux, priority 1992, dated 2001)

Assays:
[1] = system: anti-HCV antibodies (HCV-positive sera); assay: ELISA detection of anti-HCV antibodies in HCV-positive sera with adsorbed peptides; assay type: binding, human
Procedure, shortened: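 Peptides were adsorbed at 10 μg/ml for 2 h at 37 °C and blocked with 10% goat serum. Sera, first tested at 1/100, were incubated 1 h at 37 °C, detected with peroxidase anti-human IgG and OPD, and read at OD 492 nm (in places ×10^3), in duplicate.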

[2] = system: anti-HCV antibodies binding onto peptide S42G; assay: Inhibition test: inhibition of binding of anti-HCV antibodies onto peptide S42G by preincubation with peptides; design: species or system human; conditions: inhibitor 0.1 mg/ml
Experimental: To evaluate this hypothesis, inhibition tests, whose usefulness lies in the fact that they allow the formation of the antigen-antibody complex in liquid medium, were carried out, thus dispensing with possible artifacts linked to the adsorption of peptides onto a solid support.
The inhibition experiments were carried out by reaction, in liquid phase, of the HCV sera with the peptides followed by reaction of the remaining antibodies with the peptide adsorbed onto the microplates. The inhibitory peptides are incubated at a concentration of 0.1 mg/ml with sera of appropriate dilution. The rest of the manipulation is identical to that described for the ELISA test.
Peptide S18D (SEQ ID NO:11), or V22G (SEQ ID NO:12), or a mixture of both, is preincubated overnight in the presence of the serum to be tested. The antibodies can bind onto the corresponding sites.

V22G: a peptide of 24 amino acids covering sequence 22 to 45 of the CORE protein (VKFPGGGQIVGGVYLLPRRGPRLG)
optical density at 492 nm ([1]; Table 2, line 68, serum not named (below CTS), 1/100): 2.500 OD
optical density at 492 nm ([1]; Table 2, line 69, serum not named (below CTS), 1/1000): 1.605 OD
optical density at 492 nm ([1]; Table 2, line 70, serum not named (below CTS), 1/10000): 0.255 OD
optical density at 492 nm ([1]; Table 2, line 75, serum B4, 1/1000): 1.214 OD
optical density at 492 nm ([1]; Table 2, line 76, serum B4, 1/1000 (so in the source)): 0.144 OD
optical density at 492 nm ([1]; Table 2, serum B1, 1/100): 1.225 OD
optical density at 492 nm ([1]; Table 2, serum B2, 1/100): 0.756 OD
optical density at 492 nm ([1]; Table 2, serum B3, 1/100): 0.329 OD
optical density at 492 nm ([1]; Table 2, serum B4, 1/100): 2.500 OD
optical density at 492 nm ([1]; Table 2, serum B5, 1/100): 0.863 OD
optical density at 492 nm ([1]; Table 2, serum B6, 1/100): 0.749 OD
optical density at 492 nm ([1]; Table 2, serum B7, 1/100): 2.102 OD
optical density at 492 nm ([1]; Table 2, serum B8, 1/100): 0.358 OD
optical density at 492 nm ([1]; Table 2, serum B9, 1/100): 2.082 OD
optical density at 492 nm ([1]; Table 2, serum B10, 1/100): 0.225 OD
optical density at 492 nm ([1]; Table 2, serum B11, 1/100): 0.616 OD
optical density at 492 nm ([1]; Table 2, serum B12, 1/100): 1.017 OD
optical density at 492 nm ([1]; Table 2, serum B13, 1/100): 0.304 OD
optical density at 492 nm ([1]; Table 2, serum B14, 1/100): 0.186 OD
optical density at 492 nm ([1]; Table 2, serum B15, 1/100): 0.954 OD
optical density at 492 nm ([1]; Table 2, serum B16, 1/100): 2.500 OD
optical density at 492 nm ([1]; Table 2, serum CTS, 1/100): 2.500 OD
optical density at 492 nm ([1]; Table 2, serum CTS, 1/1000): 1.155 OD
optical density at 492 nm ([1]; Table 2, serum CTS, 1/10000): 0.043 OD
optical density at 492 nm ([1]; Table 2, serum P1, 1/100): 0.426 OD
optical density at 492 nm ([1]; Table 2, serum P2, 1/100): 0.290 OD
optical density at 492 nm ([1]; Table 2, serum P3, 1/100): 0.503 OD
optical density at 492 nm ([1]; Table 2, serum P4, 1/100): 1.739 OD
optical density at 492 nm ([1]; Table 2, serum P5, 1/100): 2.500 OD
optical density at 492 nm ([1]; Table 2, serum P5, 1/1000): 2.293 OD
optical density at 492 nm ([1]; Table 2, serum P5, 1/10000): 0.578 OD
optical density at 492 nm ([1]; Table 2, serum P6, 1/100): 0.000 OD
optical density at 492 nm ([1]; Table 2, serum P7, 1/100): 2.500 OD
optical density at 492 nm ([1]; Table 2, serum P7, 1/1000): 1.590 OD
optical density at 492 nm ([1]; Table 2, serum P7, 1/10000): 0.237 OD
optical density at 492 nm ([1]; Table 2, serum P8, 1/100): 2.241 OD
optical density at 492 nm ([1]; Table 2, serum P8, 1/1000): 0.476 OD
optical density at 492 nm ([1]; Table 2, serum P8, 1/10000): 0.049 OD
optical density at 492 nm ([1]; Table 2, serum P9, 1/100): 0.008 OD
optical density at 492 nm ([1]; Table 2, serum P10, 1/100): 0.026 OD
optical density at 492 nm ([1]; Table 2, serum P11, 1/100): 2.500 OD
optical density at 492 nm ([1]; Table 2, serum P12, 1/100): 2.500 OD
optical density at 492 nm ([1]; Table 2, serum P12, 1/1000): 2.500 OD
optical density at 492 nm ([1]; Table 2, serum P12, 1/10000): 0.106 OD
optical density at 492 nm ([1]; Table 2, serum P13, 1/100): 0.013 OD
optical density at 492 nm ([1]; Table 2, serum P14, 1/100): 1.778 OD
optical density at 492 nm ([1]; Table 2, serum P15, 1/100): 1.810 OD
optical density at 492 nm ([1]; Table 2, serum P16, 1/100): 2.500 OD
optical density at 492 nm ([1]; Table 2, serum P17, 1/100): 1.832 OD
optical density at 492 nm ([1]; Table 2, serum P18, 1/100): 2.500 OD
optical density at 492 nm ([1]; Table 2, serum P18, 1/1000): 0.598 OD
optical density at 492 nm ([1]; Table 2, serum P18, 1/10000): 0.072 OD
optical density at 492 nm ([1]; Table 2, serum P19, 1/100): 0.010 OD
optical density at 492 nm ([1]; Table 2, serum P20, 1/100): 2.249 OD
optical density at 492 nm ([1]; Table 2, serum P21, 1/100): 2.272 OD
optical density at 492 nm ([1]; Table 2, serum P22, 1/100): 2.500 OD
optical density at 492 nm ([1]; Table 2, serum P22, 1/1000): 0.702 OD
optical density at 492 nm ([1]; Table 2, serum P22, 1/10000): 0.088 OD
optical density at 492 nm ([1]; Table 2, serum P23, 1/100): 0.015 OD
optical density at 492 nm ([1]; Table 2, serum P24, 1/100): 0.579 OD
optical density at 492 nm ([1]; Table 2, serum P25, 1/100): 2.252 OD
optical density at 492 nm ([1]; Table 2, serum P25, 1/1000): 0.695 OD
optical density at 492 nm ([1]; Table 2, serum P25, 1/10000): 0.089 OD
optical density at 492 nm ([1]; Table 2, serum P26, 1/100): 2.500 OD
optical density at 492 nm ([1]; Table 2, serum P26, 1/1000): 1.541 OD
optical density at 492 nm ([1]; Table 2, serum P26, 1/10000): 0.199 OD
optical density at 492 nm ([1]; Table 2, serum P27, 1/100): 1.600 OD
optical density at 492 nm ([1]; Table 2, serum P28, 1/100): 2.500 OD
optical density at 492 nm ([1]; Table 2, serum P29, 1/100): 0.005 OD
optical density at 492 nm ([1]; Table 2, serum P30, 1/100): 2.500 OD
optical density at 492 nm ([1]; Table 2, serum P31, 1/100): 2.500 OD
optical density at 492 nm ([1]; Table 2, serum P31, 1/1000): 2.500 OD
optical density at 492 nm ([1]; Table 2, serum P31, 1/10000): 0.847 OD
optical density at 492 nm ([1]; Table 2, serum P32, 1/100): 1.639 OD
optical density at 492 nm ([1]; Table 2, serum P33, 1/100): 1.987 OD
optical density at 492 nm ([1]; Table 2, serum P34, 1/100): 1.618 OD
optical density at 492 nm ([1]; Table 2, serum P35, 1/100): 1.504 OD
optical density at 492 nm ([1]; Table 2, serum P36, 1/100): 1.226 OD
optical density at 492 nm ([1]; Table 2, serum P37, 1/100): 2.500 OD
optical density at 492 nm ([1]; Table 2, serum P37, 1/1000): 0.865 OD
optical density at 492 nm ([1]; Table 2, serum P37, 1/10000): 0.128 OD
optical density at 492 nm ([1]; Table 2, serum P38, 1/100): 2.500 OD
optical density at 492 nm ([1]; Table 2, serum P38, 1/1000): 1.582 OD
optical density at 492 nm ([1]; Table 2, serum P38, 1/10000): 0.057 OD
optical density at 492 nm ([1]; Table 2, serum P39, 1/100): 1.835 OD
optical density at 492 nm ([1]; Table 2, serum P40, 1/100): 2.500 OD
optical density at 492 nm ([1]; Table 2, serum P41, 1/100): 2.218 OD
optical density at 492 nm ([1]; Table 2, serum P42, 1/100): 0.000 OD
reactivity towards HCV-positive sera ([1]; in words): carry one or more epitopes
inhibition ([2]; serum B4, 1/10,000): 83.6%
inhibition ([2]; serum P5, 1/10,000): 83.0%
inhibition ([2]; serum P7, 1/10,000): 81.0%
inhibition ([2]; serum P8, 1/10,000): 77.4%
inhibition ([2]; serum P18, 1/10,000): 48.0%
inhibition ([2]; serum P22, 1/10,000): 65.5%
inhibition ([2]; serum P25, 1/10,000): 71.8%
inhibition ([2]; serum P31, 1/10,000): 39.9%
inhibition ([2]; serum P37, 1/10,000): 88.7%
inhibition ([2]; serum P38, 1/10,000): 70.3%
